From ChEMBL document CHEMBL1201862, “PubChem BioAssay data set” (2004)
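Values below derive from 48-hour exposures of cells grown in 96-well plates, with endpoints linearly interpolated between the two concentrations bracketing the appropriate inhibition level. At the GI50, growth is halved.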 Activity calls are given as the source filed them. Cut-off read from the data, not from the text of the source: active = GI50 up to about 1.1 µM and inactive = higher.

Assays:
Assay in all cases: inhibition of tumour cell growth, NCI panel, 48 h
[1] = system: ACHN
[2] = system: OVCAR-3
[3] = system: SF-295
[4] = system: K562
[5] = system: HOP-62
[6] = system: OVCAR-8
[7] = system: UACC-257
[8] = system: RPMI-8226
[9] = system: Malme-3M
[10] = system: U-251
[11] = system: MDA-MB-435
[12] = system: TK-10
[13] = system: NCI-H460
[14] = system: SK-MEL-2
[15] = system: A549
[16] = system: SK-MEL-5
[17] = system: SF-268
[18] = system: UACC-62
[19] = system: SK-MEL-28
[20] = system: DU-145

SMILES | GI50 [1] | GI50 [2] | GI50 [3] | GI50 [4] | GI50 [5] | GI50 [6] | GI50 [7] | GI50 [8] | GI50 [9] | GI50 [10] | GI50 [11] | GI50 [12] | GI50 [13] | GI50 [14] | GI50 [15] | GI50 [16] | GI50 [17] | GI50 [18] | GI50 [19] | GI50 [20]
C/C=C/[C@H]1O[C@@](OC)([C@@H](C)[C@H](O)[C@H](C)[C@H]2OC(=O)/C(OC)=C/C(C)=C/[C@@H](C)[C@@H](O)[C@@H](C)[C@@H](O)[C@H](C)C/C(C)=C/C=C/[C@@H]2OC)CC(OC2CC(O)C(OC(N)=O)C(C)O2)[C@@H]1C (some centres not stated) | < 0.01 µM (active) | < 0.01 µM (active) | < 0.01 µM (active) | < 0.01 µM (active) | < 0.01 µM (active) | < 0.01 µM (active) | < 0.01 µM (active) | < 0.01 µM (active) | < 0.01 µM (active) | < 0.01 µM (active) | < 0.01 µM (active) | 8.79 µM (inactive) | < 0.01 µM (active) | < 0.01 µM (active) | < 0.01 µM (active) | < 0.01 µM (active) | < 0.01 µM (active) | < 0.01 µM (active) |  | 
Cc1ccc(S(=O)(=O)CC2CCCn3c2c(C#N)c2ccccc23)cc1 (configuration not stated) | > 100 µM (inactive) | > 100 µM (inactive) | > 100 µM (inactive) | > 100 µM (inactive) | > 100 µM (inactive) | > 100 µM (inactive) | > 100 µM (inactive) | > 100 µM (inactive) |  | > 100 µM (inactive) | > 100 µM (inactive) | > 100 µM (inactive) |  | > 100 µM (inactive) | > 100 µM (inactive) | > 100 µM (inactive) | > 100 µM (inactive) | 57.4 µM (inactive) | > 100 µM (inactive) | > 100 µM (inactive)
CCOCN1COCN(C)C1=O | > 100 µM (inactive) | > 100 µM (inactive) | > 100 µM (inactive) | > 100 µM (inactive) | > 100 µM (inactive) | > 100 µM (inactive) | > 100 µM (inactive) | > 100 µM (inactive) | > 100 µM (inactive) | > 100 µM (inactive) |  | > 100 µM (inactive) | > 100 µM (inactive) | > 100 µM (inactive) | > 100 µM (inactive) | > 100 µM (inactive) | > 100 µM (inactive) | > 100 µM (inactive) | > 100 µM (inactive) | 
CC(=O)Oc1c2oc3cc(O)c(O)cc3c2c(OC(C)=O)c2oc3cc(O)c(O)cc3c12 [POLYOZELLIN] | 20.8 µM (inactive) | > 10 µM (inactive) | 16.7 µM (inactive) | 19.1 µM (inactive) | 16.1 µM (inactive) | 20.2 µM (inactive) | 19.4 µM (inactive) | > 10 µM (inactive) | 17.1 µM (inactive) | 1.56 µM (inactive) | 1.82 µM (inactive) | 18.9 µM (inactive) | 18.6 µM (inactive) | 20.5 µM (inactive) | 35 µM (inactive) | 18.6 µM (inactive) | 20.7 µM (inactive) | 16.6 µM (inactive) | 21.1 µM (inactive) | 
Cc1c2ccccc2c(C)c2c3c(ccc12)C(=O)C=CC3=O | 17.8 µM (inactive) | 17.8 µM (inactive) | 24.7 µM (inactive) | 11.3 µM (inactive) | > 44.5 µM (inactive) | 14.9 µM (inactive) | 16.3 µM (inactive) | 29.9 µM (inactive) | 29 µM (inactive) | 52.1 µM (inactive) |  | 19.2 µM (inactive) | > 67.6 µM (inactive) | 45.7 µM (inactive) | > 83.9 µM (inactive) | 37.7 µM (inactive) | 18.4 µM (inactive) | 35.8 µM (inactive) | 30.7 µM (inactive) | 
O=c1c2ccccc2n2n1CC(O)C2 (configuration not stated) | 2.14 µM (inactive) | > 100 µM (inactive) | > 100 µM (inactive) | > 100 µM (inactive) | > 100 µM (inactive) | > 100 µM (inactive) | > 100 µM (inactive) | > 100 µM (inactive) | 4.56 µM (inactive) | > 100 µM (inactive) |  | > 100 µM (inactive) | > 100 µM (inactive) | > 100 µM (inactive) | > 100 µM (inactive) | > 100 µM (inactive) | > 100 µM (inactive) | 0.641 µM (active) | > 100 µM (inactive) | 
CCOC(=O)C(NC(=O)OC(C)(C)C)C(=O)OCC | > 100 µM (inactive) |  |  | > 100 µM (inactive) | > 100 µM (inactive) | > 100 µM (inactive) | > 100 µM (inactive) | > 100 µM (inactive) |  | > 100 µM (inactive) | > 100 µM (inactive) | > 100 µM (inactive) | > 100 µM (inactive) | > 100 µM (inactive) | > 100 µM (inactive) | 64.1 µM (inactive) | > 100 µM (inactive) | > 100 µM (inactive) | > 100 µM (inactive) | > 100 µM (inactive)
Cc1ccc(/C=C/C(=O)C(C)(C)CN2CCCCC2)cc1 | 11.2 µM (inactive) | 2.81 µM (inactive) | 7.8 µM (inactive) | 2.27 µM (inactive) | 15.7 µM (inactive) | 2.81 µM (inactive) | 7.76 µM (inactive) | 3.49 µM (inactive) | 13.3 µM (inactive) | 13.7 µM (inactive) |  | 11.6 µM (inactive) | 8.28 µM (inactive) | 10.7 µM (inactive) | 5.68 µM (inactive) | 2.86 µM (inactive) | 15.7 µM (inactive) | 11.1 µM (inactive) | 16.4 µM (inactive) | 
N#CCCN(CCC#N)c1ccc(C(=N/c2ccc(Cl)cc2)/N=N/c2ccccc2)cc1 | > 100 µM (inactive) | 66.7 µM (inactive) | 10.9 µM (inactive) | > 100 µM (inactive) | > 100 µM (inactive) | > 100 µM (inactive) | 59.4 µM (inactive) | > 100 µM (inactive) |  | > 100 µM (inactive) | 44.9 µM (inactive) | 88.5 µM (inactive) | 55.1 µM (inactive) |  | 36.4 µM (inactive) | 10.3 µM (inactive) | > 100 µM (inactive) | 34.3 µM (inactive) | > 100 µM (inactive) | 88.5 µM (inactive)
COc1cc(OC)c(OC)cc1/C=C/c1cc[n+](C)c2ccccc12 | > 100 µM (inactive) |  | 15.3 µM (inactive) | 3.07 µM (inactive) | 4.89 µM (inactive) | 9.93 µM (inactive) | 16.1 µM (inactive) | 21.2 µM (inactive) | > 100 µM (inactive) | 5.02 µM (inactive) |  | > 100 µM (inactive) | 33.2 µM (inactive) |  | 25.9 µM (inactive) | 11 µM (inactive) | 51.2 µM (inactive) |  | > 100 µM (inactive) | 86.9 µM (inactive)
O=C1CC2(CCNCC2)C(=O)N1N1CCOCC1 | > 100 µM (inactive) | > 100 µM (inactive) | > 100 µM (inactive) | > 100 µM (inactive) | > 100 µM (inactive) | > 100 µM (inactive) | > 100 µM (inactive) | > 100 µM (inactive) | > 100 µM (inactive) | > 100 µM (inactive) |  | > 100 µM (inactive) | > 100 µM (inactive) | > 100 µM (inactive) | > 100 µM (inactive) | > 100 µM (inactive) | > 100 µM (inactive) | > 100 µM (inactive) | > 100 µM (inactive) | > 100 µM (inactive)
